According to ChEMBL document CHEMBL5579799, “Synthesis and biological evaluation of novel 18F-labeled 2,4-diaminopyrimidine derivatives for detection of ghrelin receptor in the brain” (Bioorg Med Chem Lett, 2024):

Tests used:
[1] = Ratio of drug concentration in rat brain to plasma at po administration measured after 1 hr
[2] = target: Growth hormone secretagogue receptor type 1 (Homo sapiens, UniProt Q92847)
Chain of Growth hormone secretagogue receptor type 1 (Q92847 whole entry): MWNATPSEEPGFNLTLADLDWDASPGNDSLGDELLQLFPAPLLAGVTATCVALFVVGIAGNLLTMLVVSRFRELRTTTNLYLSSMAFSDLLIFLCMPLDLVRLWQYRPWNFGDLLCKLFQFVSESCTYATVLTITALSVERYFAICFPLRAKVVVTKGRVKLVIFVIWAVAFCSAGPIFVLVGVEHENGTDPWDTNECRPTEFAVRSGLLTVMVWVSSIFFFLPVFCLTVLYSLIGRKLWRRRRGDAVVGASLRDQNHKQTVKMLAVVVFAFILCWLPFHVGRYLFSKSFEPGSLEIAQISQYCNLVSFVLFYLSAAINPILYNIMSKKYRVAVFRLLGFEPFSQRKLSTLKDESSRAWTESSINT
Description: Displacement of [125I]ghrelin from human GHSR assessed as inhibition constant by competitive binding assay

| Compound | Kp at 1 h [1] | Ki [2] [µM] |
| --- | --- | --- |
| Nc1nc(N)c(-c2ccc(NCc3ccc(Cl)cc3)cc2)c(COCc2ccccc2)n1 | 3.05 | 0.108 |
| CCc1nc(N)nc(N)c1-c1ccc(NCc2ccc(OCCF)cc2)cc1 | – | > 5 |
